# Laboratory results as given in publication PMC6514771, “A Stapled Peptide Mimic of the Pseudosubstrate Inhibitor PKI Inhibits Protein Kinase A” (Molecules, 2019).
# What was measured:
# [1] = target: human PKA catalytic isoform Cα (PKA-Cα) (Homo sapiens, UniProt P17612); test: Fluorescence polarization (FP) direct binding; settings: FAM-labeled negative control peptide; three independent measurements with three protein preparations
# [2] = target: human PKA catalytic isoform Cβ1 (PKA-Cβ1) (Homo sapiens, UniProt P22694); test: Fluorescence polarization (FP) direct binding; settings: FAM-labeled negative control peptide; three independent measurements with three protein preparations
substance,measurement,setting,value
βA-TTY*DFI*SGRTGFFNAIHD (sidechain bridge or staple) [negative control peptide],binding to PKA-Ca (FP),[1],No binding
same,binding to PKA-Cb (FP),[2],No binding
